Assay results from PubChem BioAssay (NCI).
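48-hour exposure; five concentrations; linearly interpolated endpoints. At the GI50, growth is halved. TGI is the concentration that stops growth completely.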

Tests used:
Experiment in all cases: NCI anticancer screen, dose series, 48 h
HOP-18 NSCLC = test system: HOP-18 NSCLC
LXFL 529 NSCLC = test system: LXFL 529 NSCLC
HS 578T breast = test system: HS 578T breast
PC-3 prostate = test system: PC-3 prostate
NCI/ADR-RES ovarian = test system: NCI/ADR-RES ovarian
MDA-MB-231 breast = test system: MDA-MB-231 breast
MDA-N = test system: MDA-N
XF 498 CNS = test system: XF 498 CNS

| SMILES | TGI (HOP-18 NSCLC) [µM] | TGI (LXFL 529 NSCLC) [µM] | GI50 (HS 578T breast) [µM] | TGI (HS 578T breast) [µM] | GI50 (PC-3 prostate) [µM] | TGI (PC-3 prostate) [µM] | GI50 (NCI/ADR-RES ovarian) [µM] | TGI (NCI/ADR-RES ovarian) [µM] | GI50 (MDA-MB-231 breast) [µM] | TGI (MDA-MB-231 breast) [µM] | TGI (MDA-N) [µM] | TGI (XF 498 CNS) [µM] |
| --- | --- | --- | --- | --- | --- | --- | --- | --- | --- | --- | --- | --- |
| COc1ccc(OC)c(NC(=O)C2=C(C)NC(C)=C(C(=O)Nc3cc(OC)ccc3OC)C2c2ccccc2)c1 | > 100 | > 100 | – | – | – | – | – | – | – | – | – | – |
| Cc1ccc(C(=O)c2nnc(C(=O)c3ccc(C)cc3)nn2)cc1 | > 100 | > 100 | – | – | – | – | – | – | – | – | – | – |
| COc1ccc2c(c1)cn1c3ccc(O)cc3nc(N)c21 | – | – | 1.48 | 33.4 | 0.761 | 13.4 | 0.2 | 3.33 | 0.957 | 5.56 | – | – |
| NC1C[C@H](n2cc(/C=C/Br)c(=O)[nH]c2=O)C[C@@H]1CO (stereo partly specified) | > 100 | > 100 | – | – | – | – | – | – | – | – | – | – |
| C=CCOc1cccc(/C=C2\SC(=Nc3ccc(O)cc3)NC2=O)c1 | – | – | 0.414 | 12.4 | 0.537 | > 48.4 | 0.494 | 17.1 | 0.975 | 6.62 | – | – |
| C[C@@H]1C[C@H]2CC[C@H](O2)[C@H](C)C(=O)O[C@@H](C)C[C@@H]2CC[C@@H](O2)[C@@H](C)C(=O)O[C@H](C)C[C@H]2CC[C@H](O2)[C@H](C)C(=O)O[C@@H](C)C[C@@H]2CC[C@@H](O2)[C@@H](C)C(=O)O1 | – | – | – | 54.3 | – | 2.46 | – | 21 | – | – | > 100 | – |
| CCCCCCCCCCCCCCCCN1CC2CCCCC2C1 (stereo unspecified) | – | – | 11.8 | 30.5 | 2.11 | 5.56 | 4.56 | 16.8 | 4.01 | 14 | – | – |
| O=C1CC(c2ccc(O)cc2)C2(O1)C(=O)OC(C(O)CO)C2O (stereo unspecified) | – | – | – | > 100 | – | > 100 | – | > 100 | – | > 100 | – | – |
| COc1cccc2c1c(C(=O)C(=O)Nc1cc(C)no1)cn2Cc1ccc(F)cc1 | – | – | 3.47 | > 56.9 | 11 | > 84.9 | 3.78 | > 24 | 5.41 | > 100 | – | – |
| O=[N+]([O-])C1C2C=CC(C2)[C@H]1c1ccco1 (stereo partly specified) | – | > 100 | – | – | – | – | – | – | – | – | – | > 100 |
| O=C(O)/C=C\C(=O)N1C/C(=C\c2ccccc2Cl)C(=O)/C(=C/c2ccccc2Cl)C1 | – | – | – | – | 3.56 | 15.5 | 4.08 | 22.5 | 3.52 | 11.5 | – | – |
| CCOC(=O)c1cc(NS(=O)(=O)c2ccccc2)cc(C(=O)OCC)c1 | – | – | > 100 | > 100 | > 100 | > 100 | > 100 | > 100 | > 100 | > 100 | – | – |
| COc1ccc(-c2csc(N(C(=O)N3CCN(c4cc5c(cc4F)c(=O)c(C(=O)O)cn5C4CC4)CC3)c3ccccc3)n2)cc1 | – | – | 1.48 | > 100 | 2.77 | > 100 | 3.78 | > 100 | 2.44 | 8.13 | – | – |
| Oc1cccc2ccc(N/N=C/c3cc(CN4CCCCC4)c(O)c4ncccc34)nc12 | – | – | 0.147 | 29.4 | 0.0417 | 1.86 | 0.0463 | 1.06 | 0.0991 | 2.03 | – | – |
| COc1ccc(-c2nc3sc4c(c3c(=O)[nH]2)CCCCCC4)cc1 | – | – | 1.78 | > 33.2 | > 33.2 | > 33.2 | 2.16 | > 33.2 | 4.04 | > 33.2 | – | – |
| CN(C)CCNc1c2c(c(NCCN(C)C)c3[nH]ccc13)C(=O)c1ccccc1C2=O | – | – | 2.74 | 9.26 | 0.609 | 11.1 | 0.887 | – | – | – | – | – |
| COc1ccc(-c2nn3c(-c4cc(F)c(Cl)cc4Cl)nnc3s2)cc1 | – | – | 43.3 | > 100 | 34.1 | > 100 | 21.2 | 99.7 | 27.7 | > 100 | – | – |
| COC(=O)[C@@]1(C)CC[C@]2(C)CC[C@]3(C)C4=CC=C5C(=CC(=O)C(O)=C5C)[C@]4(C)[C@@H](O)C[C@@]3(C)[C@@H]2C1 | – | – | 15.1 | 38 | 8.7 | 19 | 15.3 | 34.8 | 10.2 | 21.8 | – | – |
| NCCn1c(=O)[nH]c(=O)[nH]c1=S | – | – | > 100 | > 100 | > 100 | > 100 | > 100 | > 100 | > 100 | > 100 | – | – |
| CC(C)[C@H]1CO[C@]2(C)[C@@H]3CN(Cc4ccccc4)C[C@@H]3C(=O)N12 | > 100 | > 100 | – | – | – | – | – | – | – | – | – | – |
| COc1cc(/C=C/c2cc(O)c3cc(C(C)=O)c(=O)oc3c2)cc2c1O[C@]1(C)CC[C@@H](O)C(C)(C)[C@H]1C2 | – | – | – | – | – | > 36 | > 36.4 | > 88.9 | > 26.7 | > 92.3 | – | – |
| COc1ccc(OC)c(/C=C2\SC(=S)NC2=O)c1 | – | – | 20.7 | 55.5 | 35 | > 100 | 25.4 | 87.5 | 14.2 | 43.2 | – | – |
| Cc1cc(N(CCCl)CCCl)ccc1C=Nc1ccc(-c2csc(Cc3ccccc3)n2)cc1 | – | – | 20.3 | 83.7 | 5.66 | 44.2 | 5.18 | 34 | 12.3 | 49.5 | – | – |
| N#Cc1c(N2CCCC2)[nH]c(=O)c(C(c2c(Cl)cccc2Cl)c2c(O)c(C#N)c(N3CCCC3)[nH]c2=O)c1O | – | – | 2.75 | 19.1 | 14.5 | 28.3 | 15.4 | 33.8 | – | – | – | – |
| COc1cc(OC(C)=O)cc2c(OC(C)=O)ccc(OC(C)=O)c12 | – | > 100 | – | – | – | – | – | – | – | – | – | – |
| O=c1cc(-c2ccccc2)[nH]c2ccccc12 | – | – | 0.458 | > 23.2 | 0.403 | > 100 | 0.483 | – | 4.09 | > 62.1 | – | – |
| COc1cc2c(c(OC)c1)C1c3ccccc3NC(=O)N1CC2 (stereo unspecified) | – | – | 6.3 | > 100 | 3.89 | > 100 | – | – | 3.98 | > 100 | – | – |
| O=C(NCCO)Nc1ccc(-c2nc(N3CCOCC3)c3cccn3n2)cc1 | – | – | 0.0889 | 0.836 | 0.103 | > 100 | 2.25 | > 33.7 | 0.172 | 14.6 | – | – |
